The record followed here is patent publication US11795170B2 (Genentech, Inc., priority 2016, dated 2023).

Test [1] has as its target T1, isolated recombinant JAK2 kinase domain (Homo sapiens, UniProt O60674).
T1 construct: The activity of the isolated recombinant JAK1 and JAK2 kinase domain was measured
Briefly: JAK2 enzyme assay (Caliper LabChip, peptide phosphorylation). The settings on record: 0.2 nM JAK2, 25 μM ATP, 22° C., 30 minutes; Morrison tight binding model. It counts as biochemical. The protocol:
(§1) JAK Enzyme Assays were Carried Out as Follows:
(§2) The activity of the isolated recombinant JAK1 and JAK2 kinase domain was measured by monitoring phosphorylation of a peptide derived from JAK3 (Val-Ala-Leu-Val-Asp-Gly-Tyr-Phe-Arg-Leu-Thr-Thr, fluorescently labeled on the N-terminus with 5-carboxyfluorescein) using the Caliper LabChip® technology (Caliper Life Sciences, Hopkinton, Mass.). To determine inhibition constants (K), compounds were diluted serially in DMSO and added to 50 μL kinase reactions containing purified enzyme (1.5 nM JAK1, or 0.2 nM JAK2), 100 mM HEPES buffer (pH 7.2), 0.015% Brij-35, 1.5 μM peptide substrate, ATP (25 μM), 10 mM MgCl2, 4 mM DTT at a final DMSO concentration of 2%. Reactions were incubated at 22° C. in 384-well polypropylene microtiter plates for 30 minutes and then stopped by addition of 25 μL of an EDTA containing solution (100 mM HEPES buffer (pH 7.2), 0.015% Brij-35, 150 mM EDTA), resulting in a final EDTA concentration of 50 mM. After termination of the kinase reaction, the proportion of phosphorylated product was determined as a fraction of total peptide substrate using the Caliper LabChip® 3000 according to the manufacturer's specifications. Ki values were then determined using the Morrison tight binding model (Morrison, J. F., Biochim. Biophys. Acta. 185:269-296 (1969); William, J. W. and Morrison, J. F., Meth. Enzymol., 63:437-467 (1979)) modified for ATP-competitive inhibition [Ki=Ki,app/(1+[ATP]/Km,app)].

Test [2] has as its system JAK1-dependent STAT6 phosphorylation downstream of IL-13 stimulation. The test is described as follows: JAK1 pathway assay in BEAS-2B cells (IL-13 stimulated pSTAT6, MSD). It counts as cell-based. The settings on record: BEAS-2B human bronchial epithelial cells, 1 hr compound incubation, IL-13 for 15 min; read-out: IL13-pSTAT6 BEAS2B IC50. The protocol:
JAK1 Pathway Assay in Cell Lines was Carried Out as Follows:
Inhibitor potency (EC50) was determined in cell-based assays designed to measure JAK1 dependent STAT phosphorylation. As noted above, inhibition of IL-4, IL-13, and IL-9 signalling by blocking the Jak/Stat signaling pathway can alleviate asthmatic symptoms in pre-clinical lung inflammation models (Mathew et al., 2001, J Exp Med 193(9): 1087-1096; Kudlacz et. al., 2008, Eur J. Pharmacol 582(1-3): 154-161).
In one assay approach, TF-1 human erythroleukemia cells obtained from the American Type Culture Collection (ATCC; Manassas, Va.) were used to measure JAK1-dependent STAT6 phosphorylation downstream of IL-13 stimulation. Prior to use in the assays, TF-1 cells were starved of GM-CSF overnight in OptiMEM medium (Life Technologies, Grand Island, N.Y.) supplemented with 0.5% charcoal/dextran stripped fetal bovine serum (FBS), 0.1 mM non-essential amino acids (NEAA), and 1 mM sodium pyruvate. The assays were run in 384-well plates in serum-free OptiMEM medium using 300,000 cells per well. In a second assay approach, BEAS-2B human bronchial epithelial cells obtained from ATCC were plated at 100,000 cells per well of a 96-well plate one day prior to the experiment. The BEAS-2B assay was run in complete growth medium (bronchial epithelial basal medium plus bulletkit; Lonza; Basel, Switzerland).
Test compounds were serially diluted 1:2 in DMSO and then diluted 1:50 in medium just before use. Diluted compounds were added to the cells, for a final DMSO concentration of 0.2%, and incubated for 30 min (for the TF-1 assay) or 1 hr (for the BEAS-2B assay) at 37° C. Then, cells were stimulated with human recombinant cytokine at their respective EC90 concentrations, as previously determined for each individual lot. Cells were stimulated with IL-13 (R&D Systems, Minneapolis, Minn.) for 15 min at 37° C. The TF-1 cell reactions were stopped by the direct addition of 10× lysis buffer (Cell Signaling Technologies, Danvers, Mass.), whereas the BEAS-2B cell incubations were halted by the removal of medium and addition of 1× lysis buffer. The resultant samples were frozen in the plates at −80° C. Compound mediated inhibition of STAT6 phosphorylation was measured in the cell lysates using MesoScale Discovery (MSD) technology (Gaithersburg, Md.). EC50 values were determined as the concentration of compound required for 50% inhibition of STAT phosphorylation relative to that measured for the DMSO control.

For test [3], the target named is T2, isolated recombinant JAK1 kinase domain (Homo sapiens, UniProt P23458).
T2 construct: The activity of the isolated recombinant JAK1 and JAK2 kinase domain was measured
T2 sequence (P23458 875-1153): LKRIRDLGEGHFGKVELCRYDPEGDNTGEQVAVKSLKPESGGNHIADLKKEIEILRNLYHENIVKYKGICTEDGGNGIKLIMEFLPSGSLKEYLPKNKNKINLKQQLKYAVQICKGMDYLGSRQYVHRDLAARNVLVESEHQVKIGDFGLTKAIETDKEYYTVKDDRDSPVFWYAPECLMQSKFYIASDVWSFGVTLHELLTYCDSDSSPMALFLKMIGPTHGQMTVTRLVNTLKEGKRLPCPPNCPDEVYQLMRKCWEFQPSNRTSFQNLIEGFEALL
Briefly: JAK1 enzyme assay (Caliper LabChip, peptide phosphorylation). The settings on record: 1.5 nM JAK1, 25 μM ATP, 22° C., 30 minutes; Morrison tight binding model. It counts as biochemical. The protocol: as §1, §2

T1 sequence (O60674 849-1124): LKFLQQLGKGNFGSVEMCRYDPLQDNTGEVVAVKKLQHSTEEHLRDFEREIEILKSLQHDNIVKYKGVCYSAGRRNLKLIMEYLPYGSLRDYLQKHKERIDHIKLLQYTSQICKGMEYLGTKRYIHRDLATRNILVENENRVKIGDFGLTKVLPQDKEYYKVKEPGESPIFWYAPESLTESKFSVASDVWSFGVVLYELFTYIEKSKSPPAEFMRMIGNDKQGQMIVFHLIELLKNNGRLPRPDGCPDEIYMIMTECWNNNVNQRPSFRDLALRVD

What is called Ki is the equilibrium dissociation constant of an inhibitor or competing ligand from its target. The term IC50 denotes the concentration that gives 50% inhibition. As to `CN(C1CCN(C(=O)Cn2cc(NC(=O)c3cnc4cccnn34)c(-c3cc(Cl)ccc3OC(F)F)n2)CC1)C1COC1` [Example 1, N-[3-[5-chloro-2-(difluoromethoxy)phenyl]-1-(2-[4-[methyl(oxetan-3-yl)amino]piperidin-1-yl]-2-oxoethyl)-1H-pyrazol-4-yl]imidazo[1,2-b]pyridazine-3-carboxamide], the Ki in test [1] worked out at 0.96 nM; in test [3], 0.33 nM. The IC50 in test [2] was found to be 74 nM.
Consider `O=C(Nc1c[nH]nc1-c1cc(Cl)ccc1OC(F)F)c1cnc2ccc(Cl)nn12` [Example 2, 6-chloro-N-[3-[5-chloro-2-(difluoromethoxy)phenyl]-1H-pyrazol-4-yl]imidazo[1,2-b]pyridazine-3-carboxamide], for which the Ki was 0.2 nM in test [1] and 1.5 nM in test [3]. Besides, the IC50 in test [2] worked out at 16 nM.
Turning to `C#Cc1ccc2ncc(C(=O)Nc3c[nH]nc3-c3cc(Cl)ccc3OC(F)F)n2n1` [Example 3, N-[3-[5-chloro-2-(difluoromethoxy)phenyl]-1H-pyrazol-4-yl]-6-ethynyl-imidazo[1,2-b]pyridazine-3-carboxamide], the Ki in test [1] was 0.076 nM; in test [3], 0.29 nM. For the same compound, in test [2], the IC50 came to 21 nM.
Regarding `O=C(Nc1cn(CC(=O)N2CCC(N3CCOCC3)CC2)nc1-c1cc(Cl)ccc1OC(F)F)c1cnc2cccnn12` [Example 4, N-[3-[5-chloro-2-(difluoromethoxy)phenyl]-1-[2-[4-(morpholin-4-yl)piperidin-1-yl]-2-oxoethyl]-1H-pyrazol-4-yl]imidazo[1,2-b]pyridazine-3-carboxamide], the Ki is 1.2 nM in test [1] and 0.36 nM in test [3]. In test [2], the IC50 is 20 nM.
As for `N#CC1(CNC2CCN(C(=O)Cn3cc(NC(=O)c4cnc5cccnn45)c(-c4cc(Cl)ccc4OC(F)F)n3)CC2)CC1` [Example 5, N-[3-[5-chloro-2-(difluoromethoxy)phenyl]-1-[2-(4-[[(1-cyanocyclopropyl)-methyl]amino]piperidin-1-yl)-2-oxoethyl]-1H-pyrazol-4-yl]imidazo[1,2-b]pyridazine-3-carboxamide], the Ki in test [1] amounted to 2.4 nM; in test [3], 0.56 nM. Besides, the IC50 in test [2] was determined as 110 nM.
Take `O=C(Nc1c[nH]nc1-c1cc(Cl)ccc1OC(F)F)c1cnc2cccnn12` [Example 6, N-[3-[5-chloro-2-(difluoromelhoxy)phenyl]-1H-pyrazol-4-yl]imidazo[1,2-b]pyridazine-3-carboxamide]: the results for the Ki in test [1] and in test [3] were 0.063 nM and 0.18 nM, respectively. In test [2], the half-inhibitory concentration (IC50) came out at 4.5 nM.
In the case of `NCCn1cc(NC(=O)c2cnc3cccnn23)c(-c2cc(Cl)ccc2OC(F)F)n1` [Example 7, N-[1-(2-aminoethyl)-3-[5-chloro-2-(difluoromethoxy)phenyl]-1H-pyrazol-4-yl]imidazo[1,2-b]pyridazine-3-carboxamide], the inhibition constant (Ki) in test [1] was 0.53 nM; in test [3], 0.72 nM. Besides, the IC50 in test [2] was 34 nM.
As to `Cn1cc(NC(=O)c2cnc3cccnn23)c(-c2cc(Cl)ccc2OC(F)F)n1` [Example 8, N-[3-[5-chloro-2-(difluoromethoxy)phenyl]-1-methyl-1H-pyrazol-4-yl]imidazo[1,2-b]pyridazine-3-carboxamide], the Ki in test [1] came out at 0.14 nM; in test [3] it was 0.28 nM. In addition, the IC50 in test [2] turned out to be 6 nM.
In the case of `O=C(Nc1c[nH]nc1-c1cc(SC2CC2)ccc1OC(F)F)c1cnc2cccnn12` [Example 9, N-[3-[5-(cyclopropylsulfanyl)-2-(difluoromethoxy)phenyl]-1H-pyrazol-4-yl]imidazo[1,2-b]pyridazine-3-carboxamide], the Ki in test [1] was found to be 0.12 nM; in test [3] it was 0.29 nM. Also, the IC50 in test [2] turned out to be 11 nM.
As to `CC(C)Sc1ccc(OC(F)F)c(-c2n[nH]cc2NC(=O)c2cnc3cccnn23)c1` [Example 10, N-[3-[2-(difluoromethoxy)-5-(propan-2-ylsulfanyl)phenyl]-1H-pyrazol-4-yl]imidazo[1,2-b]pyridazine-3-carboxamide], the Ki in test [1] amounted to 0.26 nM; in test [3], 0.41 nM. In addition, the IC50 in test [2] came out at 7.5 nM.
Turning to `CSc1ccc(OC(F)F)c(-c2nn(CC(=O)N3CCC(CN4CCN(CC(=O)N(C)C)CC4)CC3)cc2NC(=O)c2cnc3cccnn23)c1` [Example 11], the Ki in test [1] amounted to 0.69 nM; in test [3], 0.51 nM. Moreover, in test [2], the IC50 turned out to be 200 nM.
`O=C(Nc1cn(CC(=O)N2CCN(CCN3CCOCC3)CC2)nc1-c1cc(Cl)ccc1OC(F)F)c1cnc2cccnn12` [Example 12, N-[3-[5-chloro-2-(difluoromethoxy)phenyl]-1-(2-[4-[2-(morpholin-4-yl)ethyl]piperazin-1-yl]-2-oxoethyl)-1H-pyrazol-4-yl]imidazo[1,2-b]pyridazine-3-carboxamide]: the figures for the Ki in test [1] and in test [3] were 2 nM and 0.65 nM, respectively. Further, in test [2], the IC50 was 150 nM.
Consider `CSc1ccc(OC(F)F)c(-c2n[nH]cc2NC(=O)c2cnc3cccnn23)c1` [Example 13, N-[3-[2-(difluoromethoxy)-5-(methylsulfanyl)phenyl]-1H-pyrazol-4-yl]imidazo[1,2-b]pyridazine-3-carboxamide], for which the Ki was 0.05 nM in test [1] and 0.11 nM in test [3]. Besides, the IC50 in test [2] was determined as 2.9 nM.
